Experimental data from patent US10458916B2, “Rapid tests for the detection of inhibitors of enzymes and human exposure to the same” (priority 2011, dated 2019).

Columns and labels:
AChE [1] = target: T1, AChE (Electrophorus electricus, UniProt O42275); assay: Rapid ticket test for AChE inhibitors with lyophilized AChE and NMI substrate discs, hue ratio by reader; details: without oxidation
Method: Filter discs ( 3/16″ diameter) of porous matrix Surewick Sample Pad C248 SA3J035V06 (Millipore). were punched from sheets using a manual punch and die.
N-methyl indoxyl (NMI) acetate (100 mg, Sigma-Aldrich) was dissolved in 100 mL 200 proof (100%) USP ethyl alcohol (Sigma-Aldrich) for a final concentration of 1 mg/mL and added to the beaker containing the filter pads. The filter discs were mixed gently with a spatula for five minutes. The discs were then carefully removed from the solution and spread out on a polystyrene sheet and dried at 45° C. for two hours. The filter discs were then removed from the oven and stored in a resealable plastic bag with desiccant. […]
The tickets were allowed to react for 15 minutes at room temperature and then inserted into the handheld fluorescence reader comprised of low light color cameras, 400 nm UV LED and custom color analysis software (FIG. 2). Enzyme inhibition was detected by the difference in the hue measurement of the Test Sample compared to the negative control (FIG. 4). The reader calculates a ratio of the hue measured in the test sample well to the hue measured in the negative control well.
Analysis was alternatively performed by visual observation of the ticket using a 400 nm UV LED flashlight (FIGS. 7 and 8). Visually, inhibition was detected directly based on the decrease in fluorescence of the test sample compared to the negative control.

Carboxylesterase (CE) = assay: Rapid ticket test with lyophilized carboxylesterase (CE) and NMI substrate discs, no sample oxidation; details: without oxidation
AChE [2] = target: T1, AChE; assay: Effect of heating the AChE reaction vials on time of detection of a positive sample; format: biochemical, eel; parameters: purchased Sigma-Aldrich; details: 0.1 ppm oxamyl in water; for Detection result, Heated: heating block 40° C.; for Detection result, Not Heated: room temperature (21° C.)
Method: Water obtained from reverse osmosis treatment was spiked with 0.1 ppm oxamyl, a carbamate pesticide. The pesticide-contaminated sample was tested using the procedure described in Example 4. Two sets of two reagent vials containing AChE were opened. To the first vial of each set was added 1 mL of the test sample containing pesticide. To the second vial of each set was added 1 mL of a negative control water. All vials were thoroughly mixed. One set of vials was placed in a heating block set at 40° C., while the other set of vials was allowed to stand at room temperature (21° C.). From each set of vials, 50 μL was sampled at 5, 10, 15, and 20 minutes and transferred to corresponding reaction zones in test tickets. After 15 minutes incubation, the fluorescence in the reaction zones of each ticket were measured on a reader.

[3] = target: T2, cholinesterase in human plasma (Homo sapiens, UniProt P06276); assay: Detection of cholinesterase inhibition in spiked human plasma on the NMI ticket; format: biochemical; details: human plasma pool spiked to final 100 ppm oxamyl, incubated overnight (22 hours) at room temperature; control zone unspiked pool
T2 construct: from tissue; host or cells: human plasma pool
T2 sequence (P06276 29-602): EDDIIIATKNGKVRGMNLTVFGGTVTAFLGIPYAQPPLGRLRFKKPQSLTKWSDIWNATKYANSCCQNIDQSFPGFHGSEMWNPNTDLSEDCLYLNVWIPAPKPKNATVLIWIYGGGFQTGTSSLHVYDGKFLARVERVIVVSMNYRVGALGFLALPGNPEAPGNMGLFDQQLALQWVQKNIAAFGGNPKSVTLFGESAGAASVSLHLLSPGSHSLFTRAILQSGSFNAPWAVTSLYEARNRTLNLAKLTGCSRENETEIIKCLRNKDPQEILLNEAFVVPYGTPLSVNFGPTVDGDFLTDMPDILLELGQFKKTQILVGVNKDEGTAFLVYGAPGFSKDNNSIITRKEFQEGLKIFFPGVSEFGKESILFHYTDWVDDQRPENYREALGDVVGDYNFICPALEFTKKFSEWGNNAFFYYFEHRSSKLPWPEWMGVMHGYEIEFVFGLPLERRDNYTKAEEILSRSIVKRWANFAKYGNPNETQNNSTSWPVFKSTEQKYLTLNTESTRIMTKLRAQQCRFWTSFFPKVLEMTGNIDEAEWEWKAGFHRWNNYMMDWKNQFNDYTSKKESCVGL

T1 sequence (O42275 24-633): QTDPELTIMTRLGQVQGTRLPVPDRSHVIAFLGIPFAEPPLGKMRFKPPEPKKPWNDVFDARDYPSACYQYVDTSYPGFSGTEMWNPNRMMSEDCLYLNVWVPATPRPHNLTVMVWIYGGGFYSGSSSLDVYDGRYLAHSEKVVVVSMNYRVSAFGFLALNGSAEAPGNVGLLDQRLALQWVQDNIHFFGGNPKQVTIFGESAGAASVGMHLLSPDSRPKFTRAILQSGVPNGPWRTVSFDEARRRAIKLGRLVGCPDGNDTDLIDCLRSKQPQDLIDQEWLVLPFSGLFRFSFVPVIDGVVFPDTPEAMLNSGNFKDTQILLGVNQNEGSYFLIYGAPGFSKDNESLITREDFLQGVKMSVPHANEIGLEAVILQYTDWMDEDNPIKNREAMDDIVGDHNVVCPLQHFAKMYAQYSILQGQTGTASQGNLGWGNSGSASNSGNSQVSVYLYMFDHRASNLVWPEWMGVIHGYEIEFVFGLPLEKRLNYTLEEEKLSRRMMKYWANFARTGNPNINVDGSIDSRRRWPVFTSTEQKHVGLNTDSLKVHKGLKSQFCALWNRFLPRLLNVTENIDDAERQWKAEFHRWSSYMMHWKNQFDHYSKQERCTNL

## CNC(=O)O/N=C/C(C)(C)SC [Aldicarb, aldicarb]
AChE [1]
  Reaction with AChE (in words): react strongly with AChE

## COP(N)(=O)SC (stereo not shown) [Methamidophos, methamidophos]
Carboxylesterase (CE)
  Reaction with CE compared with AChE (in words): react more strongly with CE than with AChE

## COP(=S)(OC)Oc1ccc([N+](=O)[O-])cc1 [Methyl Parathion, methyl parathion]
Carboxylesterase (CE)
  Reaction with CE compared with AChE (in words): react more strongly with CE than with AChE

## CNC(=O)O/N=C(\SC)C(=O)N(C)C [Oxamyl, oxamyl]
AChE [2]; 5 min
  Detection result, Heated: positive
  Detection result, Not Heated: negative
AChE [2]; 10 min
  Detection result, Heated: positive
  Detection result, Not Heated: negative
AChE [2]; 15 min
  Detection result, Heated: positive
  Detection result, Not Heated: positive
AChE [2]; 20 min
  Detection result, Heated: positive
  Detection result, Not Heated: positive
[3]
  hue ratio: 3.10
AChE [1]
  Reaction with AChE (in words): react strongly with AChE
